Data on one molecule can be found in US20250154135A1, “M-CHOLINE RECEPTOR AGONIST COMPOUND, PREPARATION METHOD THEREFOR AND USE THEREOF” (NANJING GRITPHARMA CO., LTD., priority 2022, published 2025).

Where “and” joins values, the source holds several entries; their conditions need not be identical. Identical values can stand only once.

The subject of one series is rabbit pupil. Nature of the series: Rabbit pupil diameter change, pilocarpine p-toluate at different concentrations (Test Example 3). In kind it is in vivo. Here is the method: Under the condition of normal saline, the onset time, strength of effect, duration of effect, and irritation of 1.25% pilocarpine hydrochloride and different concentrations (0.88%, 1.75%, 3.50%) of pilocarpine p-toluate were tested.
Each rabbit was subjected to eye drop administration in the left eye (using a pipette), with an administration volume of 100 μL.
Number of animals: 6 rabbits per compound.
Administration schedule: single administration.
• the pupil diameter of the left eye of the rabbits was measured at time points of −0.5 h (i.e., half an hour before administration), 5 min, 10 min, 15 min, 0.5 h, 3 h and 4 h relative to administration, with the measurement performed 3 times for each rabbit at each time point.

The subject of a further series is rabbit eyes. The series is described as follows: Irritation to rabbit eyes (Test Example 3). In kind it is in vivo. Particulars: 0.88% compared with 3.50%. The source says: Irritation: examined concurrently with the pupil diameter.
The numerical results of pupil changes are shown in Tables 3-1 to 3-4, and the changes in eye irritation phenomenon are shown in FIGS. 13 and 14.

For the molecule `CC[C@@H]1C(=O)OC[C@@H]1Cc1cncn1C` [JQ-6, Pilocarpine p-toluate], the “strength of effect at each time point compared to 1.25% pilocarpine hydrochloride” value in the series with rabbit pupil (0.88% (half molar concentration of pilocarpine)) is recorded as “demonstrated increased strength of effect at each time point”; in the series with rabbit pupil (1.75% (same molar concentration of pilocarpine)) it was “the increase in strength of effect at each time point was more significant”; with rabbit pupil (3.50% (2 times molar concentration of pilocarpine)) it was “significantly enhanced”. Besides, the “Percentage change in pupil diameter” value in the series on rabbit pupil (0.88%, 5 min, average of 6 rabbits) is −10.07%; in the series with rabbit pupil (0.88%, 5 min, individual rabbit), −4.80% and −6.70% and −13.54% and −9.41% and −12.03% and −13.93%; in the series on rabbit pupil (0.88%, 10 min, average of 6 rabbits) it was −36.21%; in the series with rabbit pupil (0.88%, 10 min, individual rabbit) it was −33.75% and −34.62% and −30.54% and −48.90% and −41.07% and −28.39%; in the series on rabbit pupil (0.88%, 15 min, average of 6 rabbits), −40.86%; in the series on rabbit pupil (0.88%, 15 min, individual rabbit), −43.40% and −41.17% and −36.73% and −43.68% and −50.07% and −30.13%. Further, the “Percentage change in pupil diameter” value is −37.44% with rabbit pupil (0.88%, 0.5 h, average of 6 rabbits); −36.60% and −41.12% and −36.25% and −37.28% and −44.65% and −28.71% in the series with rabbit pupil (0.88%, 0.5 h, individual rabbit); −10.34% in the series on rabbit pupil (0.88%, 3 h, average of 6 rabbits); −9.65% and −14.66% and −12.43% and −7.91% and −14.57% and −2.85% with rabbit pupil (0.88%, 3 h, individual rabbit); 0.70% in the series on rabbit pupil (0.88%, 4 h, average of 6 rabbits); 3.67% and −2.65% and 4.83% and −0.54% and −1.39% and 0.26% in the series with rabbit pupil (0.88%, 4 h, individual rabbit). The “Percentage change in pupil diameter” value in the series on rabbit pupil (1.75%, 5 min, individual rabbit) is −18.36% and −12.49% and −14.04%; in the series with rabbit pupil (1.75%, 10 min, individual rabbit), −44.23% and −37.19% and −44.10%; in the series with rabbit pupil (1.75%, 15 min, individual rabbit), −49.50% and −43.41% and −45.41%; in the series with rabbit pupil (1.75%, 0.5 h, individual rabbit) it was −47.81% and −42.82% and −44.78%; with rabbit pupil (1.75%, 3 h, individual rabbit), −12.34% and −6.91%; in the series with rabbit pupil (1.75%, 4 h, individual rabbit) it was −0.45% and −0.05%. Further, in the series with rabbit eyes, the “irritation to rabbit eyes” value was “significantly lower than that caused by the 3.50% pilocarpine p-toluate”.
